Reference: PubChem BioAssay (NCI)
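Cultured in 96-well plates, cells were exposed to test compound for 48 hours across five concentrations. Abbreviation: GI50, concentration required for 50% inhibition of growth. At the TGI there is no net growth.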

Assays:
Experiment in all cases: DTP human tumour cell line panel, 48 h
[1] = system: CAKI-1 renal
[2] = system: A498 renal
[3] = system: SNB-19 CNS
[4] = system: OVCAR-8 ovarian
[5] = system: SW-620 colon
[6] = system: NCI-H460 lung
[7] = system: MCF7 breast
[8] = system: HOP-92 NSCLC
[9] = system: KM12 colon
[10] = system: OVCAR-3 ovarian

Structure (SMILES)	TGI [1] [µM]	TGI [2] [µM]	TGI [3] [µM]	TGI [4] [µM]	TGI [5] [µM]	TGI [6] [µM]	TGI [7] [µM]	TGI [8] [µM]	TGI [9] [µM]	TGI [10] [µM]	GI50 [1] [µM]	GI50 [2] [µM]	GI50 [10] [nM]	GI50 [3] [µM]	GI50 [4] [nM]	GI50 [5] [µM]	GI50 [6] [nM]	GI50 [7] [µM]	GI50 [9] [µM]	GI50 [8] [nM]
O=[N+]([O-])c1ccc2nc(=S)[nH]n2c1	> 100	> 100	> 100	> 100	> 100	> 100	> 100	> 100	> 100											
O=S1Cc2ccccc2CSS1 (stereo unspecified)	35.8	> 100	> 100	27.6	27.2	32.9		31.8	31.6	31.1										
C=C1C(OCCO)OC2O[C@]3(C)CCC4[C@H](C)CCC1C24OO3 (stereo partly specified)	40.5	> 100	> 100	12.5	> 100	> 100	> 100		> 100	> 100	19	> 100	15600	> 100	2160	10.9	> 100000	17.4	6.04	
CC(=O)Nc1ccc(OCC(O)CO)cc1 (stereo unspecified)	> 100	> 100	> 100	> 100	21.6	> 100		> 100	> 100	> 100										
Cc1ccc(SSCCCCS(=O)O)cc1	40.9	54.6	> 100		38.5	> 100			52.3	67.7										
NS(=O)(=O)c1ccc(N=Nc2c(=O)[nH]c3ccc4[nH]cccc4c23)cc1	> 25	1.45	> 25	> 25	> 7.23	> 25	> 25		4.32	1.98	4.28	0.671	375	0.428	342	0.356	792	0.129	0.792	
Cc1ccccc1NC(=O)CC(=O)n1nc(-c2ccccc2)c(N=Nc2ccc([N+](=O)[O-])cc2)c1-c1ccccc1	40.4		> 100	> 100	> 100	> 100		34	61.5	37.3										
C(=NCCN=Cc1cccc2ccccc12)c1cccc2ccccc12	> 100		> 100	> 100	> 100	> 100			> 100											
C#Cc1ccccc1N1C(=O)C=CC1=O	> 100	> 100	> 100	> 100	> 100	> 100				> 100										
CC1CC2(C)CC(=O)C1C1C(=O)N(CCN3CCOCC3)C(=O)C12 (stereo unspecified)	> 100	> 100	> 100	> 100	> 100			> 100	> 100		> 100	> 100		> 100	> 100000	> 100			> 100	> 100000
O=C(CN1CCN(c2ccccn2)CC1)Nc1ccc(Cl)cc1C(=O)c1ccccc1Cl	> 100	> 100	> 100	> 100	> 100	> 100	> 100	53.7	> 100		> 100	24.5		79.6	> 100000	> 100	93600	9.26	7.73	2520
ClCCCN1CCCCC1CCl (stereo unspecified)	> 100	> 100	> 100	> 100	> 100	> 100		> 100	> 100	> 100										
CCOc1ccccc1NC(=O)C(=O)c1c(O)c2ccc(O)cc2oc1=O	> 100	> 100	> 100	> 100	> 100	> 100			> 100	> 100										
CC(=O)OC1(C#N)CC2OC1C1NC21 (stereo unspecified)	> 100	> 100	> 100	> 100	> 100	> 100		> 100												
CN/N=C(/CC(=O)c1sc(NNC(C)=O)nc1C)C(=O)Nc1ccc(OC)cc1OC	> 100	> 100	> 100	> 100	> 100	> 100		> 100	> 100	> 100										
COc1c(OC2OC(CO)C(O)C(O)C2O)cc2c(c1OC)-c1ccc(OC)c(=O)cc1[C@@H](NC(C)=O)CC2 (stereo partly specified)	> 100	> 100	> 100	> 100	> 100	> 100		> 100	> 100	> 96.6										
CCCCCCCCCCCCCCCC(N)c1ccccc1 (stereo unspecified)	2.96			4.89	3.19	3.55	3.18	3.23	3.29	3.08	1.53		1640		2220	1.61	1910	1.62	1.77	1570
NNC(=O)N/N=C1/C(=O)N(c2ccc(Cl)c(Cl)c2)C(=O)C(=O)C1c1nc2ccccc2o1 (stereo unspecified)	> 100	> 100	> 100	> 100	> 100			> 100		> 100										
CC1=C(C(=O)NCc2ccccc2)C(c2ccccc2O)C(C(=O)NCc2ccccc2)=C(C)N1	44.3	33.9	42.4	40.9	32.3	39.2		48.7	31.5	31.9										
COc1ccc(S(=O)(=O)N/N=C/CN2C(=O)c3ccccc3C2=O)cc1	> 100	> 100	> 100	> 100	> 100	> 100			> 100											
Cc1ccc(NC(=O)CC2C(=O)Nc3ccccc3S2(=O)=O)cc1C (stereo unspecified)	> 100	> 100	> 100	> 100	> 100	> 100		> 100		> 100										
CCOc1cc[n+](C(=C=[N-])C#N)cc1	> 100	> 100	> 100	> 100	> 100	> 100		> 100	> 100	> 100										
